In patent US20250066468A1, “LIPOSOME ENCAPSULATED AFFINITY DRUG” (L.E.A.F. HOLDINGS GROUP LLC, priority 2014, published 2025):

Assays:
[1] = neutral pH; cited from earlier work
CD34+ stem cells = experiment: Neutrophil differentiation of CD34+ stem cells, flow cytometry; format: cell-based, human; settings: pemetrexed 2-50 μM; day 2; n=4 donors
Experimental: Experiments were performed as follows: CD34+ stem cells were obtained from ATCC. CD34+ cells were thawed at 37° C. for 1 minute. While on ice, the cells were transferred to cold stem cell medium (“StemSpan SFEM”-Stem Cell Tech. cat. #9650), 10% heat […] fetal bovine serum (HI FBS.) Each vial contained approximated 5×10^5 cell/ml. The cells were placed in 96 well tissue culture plates 35,000 cell/well. The neutrophils GROWTH media contained 100 ng/ml of stem cell factor human (SCF-Sigma H8416, lot #MKB[…]), 20 ng/ml of granulocyte colony-stimulation factor, human (G-CSF-Sigma H5541, lot #SLB[…]), 10 ng/ml of IL3 recombinant human (Sigma SRP3090, lot #1008AFC13) in […] media as above. […] The cells shown in the circle on the plots are maturing neutrophils expressing Mac-1 and CD34.

[2] = test system: phosphorylated p38 in SL0003 lung cancer cells; experiment: p38 phosphorylation (PhosFlow); format: cell-based; settings: 30 minutes, pemetrexed at 10 μM and 50 μM
Experimental: A second measure of sample liposome entering the cell is intracellular activation pathways. Cells respond to ligands binding to their receptors by activating kinases, in this case p38. The activated kinases can be measured by flow cytometry. The cells are incubated with sample liposome for 30 minutes and then lysed with a mild detergent. The activated p38 kinase is detected with an antibody by flow cytometry. A shift under the red line gate indicates a higher level of phosphorylated p38 (See FIG. 18A and 18BG). Cancer cells may have a higher basal level of activated kinases.
In addition, for FIG. 17, measuring p38 phosphorylation (PhosFlow) SL0003, normal colon cells, and normal breast cells were seeded at 10,000 cells/well. Cells were treated with: Fresh Pemetrexed ([…]), LEAF-001 (Liposome 070715 MPF; 5traut/50 Mab, 15traut/50Mab, 45traut/50Mab) (13.33× dilution), anti-folate receptor alpha (MABFRA H/L 1.01 mg/ml) (13.33× dilution) to determine the effect of the antibody in sample liposome, or no treatment. The cells were gently mixed and quickly placed in incubator. At each time point (30 minutes-4 hours), the plates were removed from the incubator and immediately fixed with formaldehyde for a final concentration of 2%. The plates were incubated for 5 minutes at room temperature. 25 μl of media was removed. […] The cells were read on the flow cytometer (in FL2).

[3] = test system: SL0003 (lung cancer) cells; experiment: Cell cycle by propidium iodide DNA staining, flow cytometry; format: cell-based; settings: titrated concentrations, day 5
Experimental: SL0003 (lung cancer) cells were prepared as described in the Example describing MTS assays (Example 5).
For this assay, the cells were cultured for 4 or 5 days (shown is day 5.). More specifically, […] cells (lung adenocarcinoma) were seeded in 96 well plates and treated the next day with titrated concentrations of LEAF-001 or pemetrexed. At day 5, cells were lysed with FACS buffer, 0.2% triton X-100, 0.3% formaldehyde. The DNA was stained with Propidium Iodine for 30 minutes […] to evaluate cell cycle
The cells were washed and evaluated by flow cytometry (FL2). FIG. 22A depicts a schematic showing the cell cycle. By inhibiting the formation of precursor purine and pyrimidine nucleotides, pemetrexed prevents the formation of DNA and RNA, which are required for the growth and survival of both normal cells and cancer cells.

Compound: Nc1nc2[nH]cc(CCc3ccc(C(=O)N[C@@H](CCC(=O)O)C(=O)O)cc3)c2c(=O)[nH]1 [pemetrexed, Pemetrexed disodium heptahydrate]
- solubility [1]: 100 mg/mL
- neutrophil differentiation (CD34+ stem cells): neutrophil differentiation is inhibited
- effect on p38 activation [2]: reduces p38 activation
- cell cycle effect (accumulation in S phase) [3]: induces cells to accumulate in S phase
